The values below come from article PMC12084297, “Cytoplasmic connexin43-microtubule interactions promote glioblastoma stem-like cell maintenance and tumorigenicity” (Cell Death & Disease, 2025).

Assay [1] relates to Cx43. Briefly: Cx43 protein expression, immunoblot, VTC-037 GSCs. It is filed as cell-based, human. As to conditions: 50 μM, 24 h. The protocol: (§1) Cells were lysed in RIPA buffer (0.1% sodium dodecyl sulphate, 50 mM Tris pH 7.4, 150 mM NaCl, 1 mM EDTA, 1% Triton X-100, 1% deoxycholic acid, 200 μM Na3VO4, and 1 mM NaF) supplemented with Halt^TM Protease and Phosphatase Inhibitor Cocktail (Thermo Fisher). Lysates were sonicated prior to centrifugation at 4 °C for 20 min at 10,000 x g. Protein concentration was quantified using the DC protein assay (Bio-Rad Laboratories) and a standard curve obtained with increasing concentrations of Bovine Serum Albumin (BSA; Fisher Scientific). Protein samples were normalized to 20 μg total protein per lane and resolved by SDS-PAGE electrophoresis. 4X Bolt LDS sample buffer supplemented with 400 mM DTT (final concentration 1X Bolt LDS with 100 mM DTT) was added to samples before heating at 70 °C for 10 min. SDS-PAGE was run using NuPAGE Bis-Tris 4%–12% gradient gels (Thermo Fisher) with MES or MOPS running buffer according to manufacturer’s instructions. Spectra™ Multicolor Protein Ladder (Thermo Fisher) or Precision Plus Protein™ Kaleidoscope™ Prestained Protein Standards (Bio-Rad Laboratories) were included as protein ladders on the same gels. […] Membranes were imaged on a ChemiDoc™ imaging system, and analyzed with Image Lab software (Bio-Rad Laboratories). […]
For orientation: A western blot detects proteins with antibodies after separation by electrophoresis.

Assay [2] deals with HEY1 mRNA. Briefly: HEY1 mRNA by RT-qPCR, VTC-001 GSCs. The note with it: 50 μM, 24 h, RT-qPCR (as worded in text; no figure panel described). It is filed as cell-based, human. On the procedure:
(§2) RNA was extracted using the PureLink^TM RNA mini extraction kit (Thermo Fisher) and on-column DNA digestion was completed using PureLink^TM DNase according to the manufacturer’s instructions. RNA was reverse transcribed to generate cDNA using the iScript^TM Reverse Transcription SuperMix for RT-qPCR kit (Bio-Rad Laboratories). Real-time PCR was performed using the SYBR select Master Mix for CFX (Thermo Fisher) in hard-shell 96-well PCR plates (Bio-Rad Laboratories) on a CFX Connect Real Time System (Bio-Rad Laboratories). Primer sequences used were: hNOTCH1_Fwd: 5’-CGCACAAGGTGTCTTCCAG-3’; hNOTCH1_Rev: 5’-CGGCGTGTGAGTTGATGA-3’; hHES1_Fwd: 5’-GGCTGGAGAGGCGGCTAA-3’; hHES1_Rev: 5’-[…]-3’; hHEY1_Fwd: 5’-[…]-3’; hHEY1_Rev: 5’-[…]-3’.

For assay [3], the system named is Cx43. As to conditions: prior work with JM2; ref [41]; cited from earlier work. An excerpt: Using JM2, a Cx43 mimetic peptide of Cx43 tubulin-binding domain, we confirm efficient and specific disruption of Cx43-microtubule interaction in GSCs together with decreased self-renewal abilities and enhanced killing of this cancer stem-like cell population, highlighting a novel tumorigenic role for Cx43 in GSCs, and GBM. Thermal shift assays reveal JM2 presents high affinity for both α- and β- tubulin. While chemotherapeutic drugs such as paclitaxel have been used to target microtubule functions as therapeutic agents, many of these therapeutic agents cause significant side-effects. M ...

The test system of assay [4] is LN229/GSCs. Briefly: MTS survival, LN229/GSCs. It is filed as cell-based, human. As to conditions: 100 µM, 4 days. The protocol: Cells were plated in 96-well plates (2000–5000 cells per well) and treated the following day with TMZ (10, 50, or 100 μM), antennapedia, JM2-scrambled, or JM2 (10, 50, or 100 μM). After 4 days, cell viability was monitored following addition of MTS reagent (Promega) according to manufacturer’s instructions. The absorbance at 490 nm was measured using a SpectraMax i3 or iD3 microplate reader (Molecular Devices). For the caspase 3/7 activity assay, cells were plated in 96-well plates (2000 cells per well) and treated with TMZ or peptides as described above. The activity of caspase 3/7 was measured after 48 h using the Caspase-Glo® 3/7 assay (Promega) following the manufacturer’s instructions. Fold change of caspase 3/7 activity was defined as the ratio of caspase 3/7 luminescence in treated cells compared to controls.

The subject of assay [5] is Cx43. Briefly: Cx43 expression in co-IP input, immunoblot, VTC-037 GSCs. The note with it: 50 μM, 24 h. It is filed as cell-based, human. On the procedure:
as §1, with “min.” for “min. SDS-PAGE was run using NuPAGE Bis-Tris 4%–12% gradient gels (Thermo Fisher) with MES or MOPS running buffer according to manufacturer’s instructions. Spectra™ Multicolor Protein Ladder (Thermo Fisher) or Precision Plus Protein™ Kaleidoscope™ Prestained Protein Standards (Bio-Rad Laboratories) were included as protein ladders on the same gels.”
Prior to lysis, cross-linking was completed by incubating cells in DTBP (dimethyl 3,3’-dithiobispropionimidate; 2 mM in PBS) for 30 min at 37 °C followed by a glycine quench (100 mM glycine in PBS) for 15 min at room temperature. […] Protein concentration was quantified using the DC protein assay and a standard curve obtained with increasing concentrations of BSA, and 500 μg of total protein was used per reaction for co-IP. […]

For assay [6], the system named is HEY1 mRNA. Briefly: HEY1 mRNA by RT-qPCR, VTC-037 GSCs. The note with it: 50 μM, 24 h, compared to JM2-scrambled. It is filed as cell-based, human. On the procedure:
as §2
In general terms: In qPCR the cycle at which signal appears reflects the starting amount.

Take VFFKGVKDRVKGRSD [JM2]: in assay [1], the Cx43 protein expression result is “without affecting Cx43 expression”. The “Hey1 mRNA expression” value in assay [2] was “significantly decreased the expression of Notch downstream targets Hes1 and Hey1 at the transcription level”; in assay [6], “significantly decreased the expression of Notch downstream targets Hes1 and Hey1 at the transcription level”. For the same sequence, in assay [3], the “Cx43 delivery to the cell surface” value was “a loss of Cx43 delivery to the cell surface due to increased Cx43/tubulin complexing”. Also, in assay [4], the “LN229/GSC survival (MTS)” value is given as “significantly decreased LN229/GSC survival after 4 days”. Further, the “Cx43 expression (co-IP input)” value in assay [5] is reported as “does not affect Cx43 expression in GSCs”.
